Tests used:
[1] = test system: corn (ZEAMD); assay: Test H preemergence mixtures of compound 2 with crop safeners; format: in vivo, Zea mays cv. ‘Pioneer 33G26’; parameters: key to ZEAMD Obsd. (observed effect): observed % effect, visually evaluated vs controls
From the text: (§1) Seeds of test plants consisting of winter wheat (TRZAW, Triticum aestivum), corn (ZEAMD, Zea mays cv. ‘Pioneer 33G26’), giant foxtail (SETFA, Setaria faberi), and Italian ryegrass (LOLMU, Lolium multiflorum) were planted into a blend of loam soil and sand and treated preemergence with a directed soil spray using test chemicals formulated in a non-phytotoxic solvent mixture that included a surfactant. Seeds of small-seeded species were planted about 1 cm deep; larger seeds were planted about 2.5 cm deep. […] Balanced fertilizer was applied through the watering system. Treatments consisted of Compound 2 and the above mentioned safeners alone and in combination using a spray volume of 457 L/ha. Each treatment was replicated four times. Treated plants and controls were maintained in a greenhouse for 14 to 21 days, after which time all species were compared to controls and visually evaluated. […] A dash (-) response means no test result. Colby's Equation was used to determine the herbicidal effects expected from the mixtures. Colby's Equation (Colby, S. […] wherein • Pa+b is the percentage effect of the mixture expected from additive contribution of the individual components, • Pa is the observed percentage effect of the first active ingredient at the same use rate as in the mixture, and • Pb is the observed percentage effect of the second active ingredient at the same use rate as in the mixture.

[2] = test system: winter wheat (TRZAW); assay: Test I preemergence mixtures of compound 2 with crop safeners; format: in vivo, Triticum aestivum; details: alone
From the text: (§2) Seeds of test plants consisting of winter wheat (TRZAW, Triticum aestivum), corn (ZEAMD, Zea mays cv. ‘Pioneer 33G26’), wild oat (AVEFA, Avena fatua), and Italian ryegrass (LOLMU, Lolium multiflorum) were planted into a blend of loam soil and sand and treated preemergence with a directed soil spray using test chemicals formulated in a non-phytotoxic solvent mixture that included a surfactant. Seeds of small-seeded species were planted about 1 cm deep; larger seeds were planted about 2.5 cm deep. […] Balanced fertilizer was applied through the watering system. Treatments consisted of Compound 2 and the above mentioned safeners alone and in combination using a spray volume of 457 L/ha. Each treatment was replicated four times. Treated plants and controls were maintained in a greenhouse for 14 to 21 days, after which time all species were compared to controls and visually evaluated. […] A dash (-) response means no test result. Colby's Equation was used to determine the herbicidal effects expected from the mixtures. Colby's Equation (Colby, S. […] Pa+b=Pa+Pb−(PaPb/100) wherein • Pa+b is the percentage effect of the mixture expected from additive contribution of the individual components, • Pa is the observed percentage effect of the first active ingredient at the same use rate as in the mixture, and • Pb is the observed percentage effect of the second active ingredient at the same use rate as in the mixture.

[3] = test system: corn (ZEAMD); assay: as above; format: in vivo, Zea mays cv. ‘Pioneer 33G26’; details: alone
From the text: as §2

[4] = test system: Italian ryegrass (LOLMU); assay: as above; format: in vivo, Lolium multiflorum; details: alone
From the text: as §2

[5] = test system: wild oat (AVEFA); assay: as above; format: in vivo, Avena fatua; details: alone
From the text: as §2

[6] = test system: corn (ZEAMD); assay: Test J preemergence mixtures of Compound 2 with crop safeners; format: in vivo, Zea mays cv. ‘Pioneer 33G26’; parameters: key to ZEAMD Obsd. (observed effect): observed % herbicidal effect
From the text: as §1, with “aestivum) and” for “aestivum),”, “33G26’)” for “33G26’), giant foxtail (SETFA, Setaria faberi), and Italian ryegrass (LOLMU, Lolium multiflorum)”, “surfactant.” for “surfactant. Seeds of small-seeded species were planted about 1 cm deep; larger seeds were planted about 2.5 cm deep.”, “times.” for “times. Treated plants and controls were maintained in a greenhouse for 14 to 21 days, after which time all species were compared to controls and visually evaluated.”, “and” for “and •”

[7] = test system: winter wheat (TRZAW); assay: Test H preemergence mixtures of compound 2 with crop safeners; format: in vivo, Triticum aestivum; parameters: key to TRZAW Obsd. (observed effect): observed % effect, visually evaluated vs controls
From the text: as §1

[8] = test system: giant foxtail (SETFA); assay: as above; format: in vivo, Setaria faberi; parameters: key to SETFA Obsd. (observed effect): observed % effect, visually evaluated vs controls
From the text: as §1

[9] = Cmpd 2 alone 125 g a.i./ha, scale 0 to 100, mean of four replicates

With `Cc1cc[n+]([O-])c(S(=O)(=O)Cc2c(C(F)(F)F)nn(C)c2OC(F)F)c1` [Compound 2] the “Plant response rating ZEAMD Obsd.” value [1, 9] was 15, the “ZEAMD Obsd. (observed effect)” value ([1]; Test H, alone, 125 g a.i./ha) was 15 and the “TRZAW Obsd. (observed effect)” value ([2]; 125 g a.i./ha) was 93. The “TRZAW Obsd. (observed effect)” value ([2]; 250 g a.i./ha) was 100, the “ZEAMD Obsd. (observed effect)” value ([3]; 125 g a.i./ha) was 69 and the “ZEAMD Obsd. (observed effect)” value ([3]; 250 g a.i./ha) was 93. The “LOLMU Obsd. (observed effect)” value ([4]; 125 g a.i./ha) was 48, the “LOLMU Obsd. (observed effect)” value ([4]; 250 g a.i./ha) was 89 and the “AVEFA Obsd. (observed effect)” value ([5]; 125 g a.i./ha) was 93. For the same compound, the “AVEFA Obsd. (observed effect)” value ([5]; 250 g a.i./ha) was 96, the “ZEAMD Obsd. (observed effect)” value ([6]; Test J, alone, 125 g a.i./ha) was 35 and the “Observed effect (Obsd.), ZEAMD” value ([6]; single active ingredient alone at 125 g a.i./ha) was 35%. The “Plant response rating TRZAW Obsd.” value [7, 9] was 63, the “TRZAW Obsd. (observed effect)” value ([7]; Test H, alone, 125 g a.i./ha) was 63 and the “Plant response rating SETFA Obsd.” value [8, 9] was 100. For the same compound, the “SETFA Obsd. (observed effect)” value ([8]; Test H, alone, 125 g a.i./ha) was 100.

Source: patent publication US20100298141A1, “SUBSTITUTED PYRIDINE N-OXIDE HERBICIDES” (E. I. DU PONT DE NEMOURS AND COMPANY, priority 2007, published 2010)
